Experiment: xn = mol fraction of the nth substance listed

CC(=O)NCC(=O)O + O
viscosity [mPa·s], 101 kPa
Conditions	305.15 K	310.15 K	315.15 K
x1 = 3.6e-05	0.7912	0.7079	0.6523
x1 = 7.24e-05	0.7987	0.7201	0.6594
x1 = 0.000108	0.8032	0.7298	0.6613
x1 = 0.000144	0.8098	0.7307	0.6623
x1 = 0.0001823	0.8102	0.7321	0.6627
x1 = 0.000344	0.8162	0.7345	0.6658
x1 = 0.0007167	0.8254	0.7372	0.6685
x1 = 0.001025	0.8325	0.7401	0.6724
x1 = 0.001416	0.8398	0.7443	0.6751
x1 = 0.001792	0.8466	0.7473	0.6785
x1 = 0.002155	0.8523	0.7499	0.6822
x1 = 0.002607	0.8583	0.7554	0.6887
x1 = 0.003011	0.8641	0.7603	0.6933
x1 = 0.003546	0.8721	0.7654	0.6996

CC1CCC(=O)O1 (stereo unspecified) + O
viscosity [mPa·s], 101 kPa
Conditions	x1 = 0.0503	x1 = 0.0995	x1 = 0.1997	x1 = 0.2994	x1 = 0.3997	x1 = 0.499	x1 = 0.5994	x1 = 0.701	x1 = 0.7995	x1 = 0.8996
298.15 K	1.405	1.747	2.113	2.204	2.169	2.055	1.998	1.902	1.856	1.823
303.15 K	1.243	1.533	1.852	1.939	1.921	1.831	1.786	1.719	1.689	1.671
308.15 K	1.107	1.357	1.638	1.721	1.714	1.65	1.612	1.566	1.545	1.538
313.15 K	0.962	1.193	1.449	1.529	1.531	1.487	1.454	1.426	1.408	1.407
318.15 K	0.8912	1.089	1.31	1.384	1.392	1.36	1.342	1.32	1.311	1.314

CCCC[N+](CCCC)(CCCC)CCCC.O=[N+]([O-])[O-] + O
viscosity [mPa·s], 101 kPa
Conditions	298.15 K	308.15 K	318.15 K	323.15 K
x1 = 0.000175	0.9058	0.7311	0.6051	0.5548
x1 = 0.0007208	0.9399	0.7555	0.6231	0.5704
x1 = 0.0009037	0.9512	0.7635	0.629	0.5756
x1 = 0.001282	0.9739	0.7798	0.6411	0.586
x1 = 0.001513	0.9877	0.7898	0.6484	0.5923
x1 = 0.002132	1.024	0.8156	0.6675	0.609
x1 = 0.00641	1.328	1.024	0.8259	0.747
x1 = 0.006556	1.335	1.035	0.8318	0.7536
x1 = 0.009813	1.592	1.21	0.9594	0.8647
x1 = 0.0134	1.907	1.431	1.107	1.002
x1 = 0.0182	2.346	1.735	1.333	1.182
x1 = 0.01938	2.474	1.813	1.399	1.241
x1 = 0.02698	3.292	2.346	1.808	1.573
x1 = 0.03856	4.744	3.175	2.424	2.123
x1 = 0.06582	8.699	5.748	4.183	3.578
x1 = 0.08624	12.21	7.98	5.611	4.732
x1 = 0.1165	18.05	11.05	7.815	6.642

CCCC[NH2+]CCO.O=C([O-])c1ccccc1O + O
100 kPa, x2 = 0.142
Conditions	viscosity [mPa·s]
298 K	876
303 K	582.8
313 K	275.5
323 K	145

C[NH+](C)CCO.O=C([O-])CC(O)C(=O)O (stereo unspecified) + O
101 kPa, x2 = 0.89
Conditions	viscosity [mPa·s]
298 K	18.3
313 K	10.3
